Source: US20250223301A1, “KINASE INHIBITORS, PREPARATION METHODS AND USES THEREOF” (InventisBio Co., Ltd., priority 2022, published 2025)

How the values were obtained:
PBMC = assay: Human PBMC IL-2 assay; type: cell-based; settings: anti-CD3/CD28 stimulation overnight, IL-2 level
Description: PBMC (frozen) obtained from health donor were thawed in RPMI-1640 medium with 10% FBS and incubated for 4 h at 37° C. In a 96-well plate, −200,000 PBMC cells in 160 uL were added to each assay well. Ten microliter compound solution (10 uM to 0.6 nM, 8 points with 4-fold dilution) were added to cells in each well and incubated for 60 minutes at 37° C. Then 30 uL anti-CD3/CD28 antibody (Catalog #10991, Stemcell) were added to cells and incubated overnight at 37° C. After the incubation, 16 uL supernatants were transferred into a new 384-well white assay plate for cytokine analysis. IL-2 level was quantified using Human IL-2 kit (Catalog #62HIL02PEG, Cisbio) as described in the manufacturer manual.
(§1) X is log of compound concentration, Y is the IL-2 concentration, increasing as X increases.

Jurkat cells = assay: Jurkat IL-2 assay; type: cell-based; settings: Homo sapiens, anti-CD3/CD28 stimulation overnight, IL-2 level
Description: Jurkat cells (ATCC) were cultured in RPMI-1640 medium supplemented with 10% FBS. In a 96-well plate, −250,000 cells in 130 uL were added to each assay well. Ten microliter compound solution (5 uM to 2.3 nM, 8 points with 3-fold dilution) were added to cells in each well and incubated for 60 minutes at 37° C. Then 10 uL anti-CD3/CD28 antibody (Catalog #10991, Stemcell) were added and incubated overnight at 37° C. After the incubation, 16 uL supernatants were transferred into a new 384-well white assay plate for cytokine analysis. IL-2 was quantified using Human IL-2 kit (Catalog #62HIL02PEG, Cisbio) as described in the manufacturer manual.
as §1

| Structure (SMILES) | EC50 (Jurkat cells) | EC50 (PBMC) |
| --- | --- | --- |
| CC[C@@H](c1ccc(Cl)c(C(F)(F)F)c1)N1C[C@H]2COc3c(c4nc(C#N)ccc4n(C)c3=O)N2C[C@H]1C (stereo in doubt) [Compound 318] | 359 nM | 349 nM |
| CC[C@@H]1CN2c3c(c(=O)n(C)c4ccc(C#N)nc34)OC[C@@H]2CN1[C@@H](CC)c1ccc(C(F)(F)F)c(F)c1 (stereo in doubt) [Compound 319] | 519 nM | 285 nM |
| CC[C@H](c1ccc(Cl)c(Cl)c1)N1C[C@H]2COc3c(c4nc(C#N)ccc4n(C)c3=O)N2C[C@H]1C (stereo in doubt) [Compound 321] | 223 nM | 540 nM |
| CC[C@H](c1ccc(C(F)(F)F)c(Cl)c1)N1C[C@H]2COc3c(c4nc(C#N)ccc4n(C)c3=O)N2C[C@H]1C (stereo in doubt) [Compound 323] | 364 nM | 474 nM |
| CC[C@@H](c1ccc(C(F)(F)F)c(Cl)c1)N1C[C@H]2COc3c(c4nc(C#N)ccc4n(C)c3=O)N2C[C@H]1C (stereo in doubt) [Compound 324] | 95 nM | 49 nM |
| CC[C@@H]1CN2c3c(c(=O)n(C)c4ccc(C#N)nc34)OC[C@@H]2CN1[C@@H](CC)c1ccc(Cl)c(C(F)(F)F)c1 (stereo in doubt) [Compound 327] | 64 nM | 103 nM |
| CC[C@H](c1ccc(C(F)(F)F)c(F)c1)N1C[C@H]2COc3c(c4nc(C#N)ccc4n(C)c3=O)N2C[C@H]1C (stereo in doubt) [Compound 328] | 339 nM | 302 nM |
| CC[C@@H](c1ccc(C(F)(F)F)c(F)c1)N1C[C@H]2COc3c(c4nc(C#N)ccc4n(C)c3=O)N2C[C@H]1C (stereo in doubt) [Compound 329] | 97 nM | 54 nM |
| CC[C@@H]1CN2c3c(c(=O)n(C)c4ccc(C#N)nc34)OC[C@@H]2CN1[C@H](CC)c1ccc(F)c(C)c1 (stereo in doubt) [Compound 336] | 131 nM | 163 nM |
| CC[C@@H]1CN2c3c(c(=O)n(C)c4ccc(C#N)nc34)OC[C@@H]2CN1[C@H](CC)c1ccc(C)c(F)c1 (stereo in doubt) [Compound 338] | 86 nM | 153 nM |
| CC[C@@H]1CN2c3c(c(=O)n(C)c4ccc(C#N)nc34)OC[C@@H]2CN1[C@H](CC)c1ccc(C)c(Cl)c1 (stereo in doubt) [Compound 342] | 125 nM | 280 nM |
| CC[C@@H]1CN2c3c(c(=O)n(C)c4ccc(C#N)nc34)OC[C@@H]2CN1[C@@H](CC)c1ccc(C)c(Cl)c1 (stereo in doubt) [Compound 343] | 45 nM | 18 nM |
| CC[C@@H]1CN2c3c(c(=O)n(C)c4ccc(C#N)nc34)OC[C@@H]2CN1[C@H](CC)c1ccc(C)cc1 (stereo in doubt) [Compound 344] | 96 nM | 53 nM |

These reach a lower EC50 (Jurkat cells). Values come first.

| EC50 (Jurkat cells) | Structure (SMILES) | EC50 (PBMC) |
| --- | --- | --- |
| 21 nM | CC[C@H](c1ccc(Cl)c(C(F)(F)F)c1)N1C[C@H]2COc3c(c4nc(C#N)ccc4n(C)c3=O)N2C[C@H]1C (stereo in doubt) [Compound 317] | 105 nM |
| 42 nM | CC[C@@H]1CN2c3c(c(=O)n(C)c4ccc(C#N)nc34)OC[C@@H]2CN1[C@H](CC)c1ccc(C(F)(F)F)c(F)c1 (stereo in doubt) [Compound 320] | 56 nM |
| 12 nM | CC[C@@H]1CN2c3c(c(=O)n(C)c4ccc(C#N)nc34)OC[C@@H]2CN1[C@@H](CC)c1ccc(F)c(C)c1 (stereo in doubt) [Compound 337] | 16 nM |
| 7 nM | CC[C@@H]1CN2c3c(c(=O)n(C)c4ccc(C#N)nc34)OC[C@@H]2CN1[C@@H](CC)c1ccc(C)c(F)c1 (stereo in doubt) [Compound 339] | 13 nM |
| 6 nM | CC[C@@H]1CN2c3c(c(=O)n(C)c4ccc(C#N)nc34)OC[C@@H]2CN1[C@@H](CC)c1ccc(Cl)c(C)c1 (stereo in doubt) [Compound 341] | 13 nM |
| 18 nM | CC[C@@H]1CN2c3c(c(=O)n(C)c4ccc(C#N)nc34)OC[C@@H]2CN1[C@@H](CC)c1ccc(C)cc1 (stereo in doubt) [Compound 345] | 10 nM |
